These results are taken from patent US10869926B2, “Suppression of myeloid derived suppressor cells and immune checkpoint blockade” (The Johns Hopkins University, priority 2014, dated 2020).

Where “and” joins values, the source holds several entries; their conditions need not be identical. Equal values may be shown once.

Series [1] relates to MHC-I, B2M and TAP1 genes in 4T1 cells. Briefly: RT-PCR of genes involved in MHC-I presentation. It counts as cell-based, murine. The following applies: 4T1 cells cultured in vitro. The procedure:
(§1) 5×10^6 CT26 or 4T1 cells were resuspended in 0.75 ml Trizol LS Reagent (Invitrogen Life Technologies) and 0.25 ml chloroform (Sigma-Aldrich). Samples were vortexed for 15 seconds and incubated for 10 minutes at 20° C. […] Samples were centrifuged at 12000 g for 10 minutes at 4° C. after 10 minute incubation at 20° C. The resulting pellets were air dried for less than 10 minutes and were resuspended with RNAse-free water (Invitrogen Life Technologies) for a final concentration of 500 ng/μl. PCR was performed using SuperScript III One-Step RT-PCR System with Platinum Taq DNA Polymerase (Invitrogen Life Technologies). Annealing temperature was set at 55° C. for H-2D(d), β2m and TAP1, and set at 60° C. for β-actin. […] The following […] used for RT-PCR: H-2D(d) Forward [NT] (SEQ ID NO: 1), H-2D(d) Reverse [NT] ID NO: 2), β2m Forward [NT] ID NO: 3), β2m Reverse [NT] ID NO: 4), TAP1 Forward [NT] ID NO: 5), TAP1 Reverse [NT] ID NO: 6), β-actin Forward [NT] ID NO: 7), β-actin Reverse [NT] ID NO: 8).

The test system of series [2] is MHC-I, B2M and TAP1 genes in CT26 cells. Description: RT-PCR of genes involved in MHC-I presentation. The following applies: CT26 cells cultured in vitro. Format: cell-based, murine. As for the experimental part:
as §1

The next series deals with 4T1 cells. Briefly: In vitro survival assay (WST-1). It counts as cell-based, murine. The note with it: 24 hours, 0 to 50 μM. As for the experimental part:
4T1 (CRL-2539, murine breast tumor cells) and CT26 (CRL-2638, murine colorectal adenocarcinoma) were purchased from ATCC. Both tumor cell lines were grown in McCoy's 5A supplemented with 10% Fetal Bovine Serum at 37° C., 5% CO2.
MDSCs and CD8^+ T cells were plated on 96-well plate at 2×10^6 cells/ml in RPMI1640 medium supplemented with 10% FBS. CD8^+ T cell cultures were supplemented with recombinant interleukin-2 (Invitrogen Life Technologies) at 2000 U/ml. 4T1 cells in McCoy 5A supplemented with 10% FBS were plated on 96-well plate and cultured until they reached >70% confluency. Cells were cultured with entinostat, 5-azacytidine, or J32 at concentrations ranging from 0 μM to 50 μM for 24 hours at 37° C., 5% CO2. The proportion of viable cells was assessed by incubating the cells with 10% (v/v) Cell Proliferation Reagent WST-1 (Roche Applied Science) for 3 hours at 37° C. and measuring OD450 absorbance of the resulting formazan products.
In general terms: Formazan colour is commonly taken as a measure of viable cells.

Another series has as its system 4T1 tumors. Description: 4T1 primary tumors and metastatic lesions (metastasis analysis). Format: in vivo, BALB/c mice. The following applies: for metastases (in words) / primary tumors (in words): 4T1, sacrificed six weeks after tumor implantation; for Liver Mets / Lung Mets / Primary Tumor Vol (mm^3) / Spleen Mets: six weeks after tumor implantation. The procedure:
Tumor volume was calculated as length×width×0.5.
On day 46 post-tumor implantations, 4T1 tumor bearing mice were euthanized according to the IACUC guidelines. Lungs, livers and spleens were harvested and fixed in 10% Neutral Buffered Formalin Solution (Sigma-Aldrich) and metastatic nodules were counted from at least three mice per group.

Series [3] concerns G-MDSCs. Briefly: In vitro survival assay (WST-1). The following applies: 24 hours, 0 to 50 μM. It counts as cell-based, mouse.
Excerpt: MDSCs from 4T1 tumor-bearing animals were isolated from spleens using Myeloid-Derived Suppressor Cell Isolation Kit, mouse (Miltenyi Biotec) and BD FACS Aria III cell sorter (BD Biosciences). CD8^+ cells were isolated from spleens of 4T1-bearing animals treated with anti-PD-1 and anti-CTLA-4 antibodies using CD8a^+ T Cell Isolation Kit II, mouse (Miltenyi Biotec) and BD FACS Aria III cell sorter (BD Biosciences). MDSC, Tregs, and CD8^+ T cells were isolated and cultured by following the manufacturer's protocols and published protocols (38, 39). The purity of G-MDSCs (CD11b^+Ly6G^+Ly6C^loF4/80^−MHC-II^−) and CD8^+ (CD3^+CD8^+) populations were greater than 95% as determined by flow cytometry, and the viability was greater than 95% for these populations as determined by trypan blue staining.
MDSCs and CD8^+ T cells were plated on 96-well plate at 2×10^6 cells/ml in RPMI1640 medium supplemented with 10% FBS. CD8^+ T cell cultures were supplemented with recombinant interleukin-2 (Invitrogen Life Technologies) at 2000 U/ml. […] The proportion of viable cells was assessed by incubating the cells with 10% (v/v) Cell Proliferation Reagent WST-1 (Roche Applied Science) for 3 hours at 37° C. and measuring OD450 absorbance of the resulting formazan products.
The subject of series [4] is IFN-γ secretion in co-cultures of G-MDSCs and CD8+ T cells. Briefly: IFN-γ assay in G-MDSC / CD8+ T cell co-cultures (ELISA). Format: cell-based, mouse. The following applies: G-MDSC to CD8+ T cell ratio 1:1, 24 hours, 0 to 0.25 μM. As for the experimental part: Freshly isolated MDSCs and CD8^+ T cells from 4T1 tumor-bearing animals were cultured at MDSC to CD8^+ T cell ratios of 5:1, 2:1, 1:1, 1:2, and 1:5 in presence of recombinant IL-2 (Invitrogen Life Technologies) at 2000 U/mL and CD3/CD28 antibody coated beads (Miltenyi). MDSC and CD8^+ T cells were cultured at 1:1 ratio with entinostat at concentrations ranging from 0 μM to 0.25 μM. Cell-free supernatants were collected after 24-hour incubation at 37° C. and IFN-γ levels were assayed using Mouse IFN-γ DuoSet Elisa Development Kit (R&D Systems) according to the manufacturer's instruction.
(In general: ELISA stands for enzyme-linked immunosorbent assay.)

For series [5] the following is noted: mouse, in vivo.
Description: Body weight measurements. BALB/c mice bearing 4T1 tumors were treated with indicated therapeutic modalities. Their body weights were measured and recorded regularly after treatments. Means and standard deviations of data are shown.
Six to eight weeks old female BALB/C mice (Harlan Laboratories) were used for all animal experiments. 5×10^6 4 T1 tumor cells or 5×10^6 CT26 tumor cells were inoculated subcutaneously into the right flank of each mouse. Tumors were allowed to grow for 11 days prior to randomization and treatment. CT26 bearing mice were given 10 mg/kg of anti-PD-1 and/or anti-CTLA-4 antibodies intraperitoneally on day 11, 13, 15, 17, 20, 23 and 26 post-tumor implantations and 4T1 bearing mice were given 10 mg/kg anti-PD-1 and/or anti-CTLA-4 antibodies intraperitoneally on day 11, 13, 15, and 17 post-tumor implantations. 4T1 tumor bearing mice were given a single dose of 10 mg/kg anti-CD25 antibody or 10 mg/kg anti-Ly6G antibody intraperitoneally on day 12 post-tumor implantation for cell depletion studies. All antibodies were diluted to appropriate concentrations in 100 μl sterile PBS, pH 7.4 (Invitrogen Life Technologies). […] 4T1 bearing mice were injected intraperitoneally on day 12, 14, 16, and 18. […] Tumor volume was calculated as length×width×0.5.
Another series concerns CD8+ T cells. Description: In vitro survival assay (WST-1). It counts as cell-based, mouse. The following applies: 24 hours, 0 to 50 μM.
Series [6] concerns G-MDSCs. Briefly: Flow cytometry of G-MDSCs in 4T1 tumor-bearing mice. The note with it: added to / in combination with PD-1/CTLA-4 inhibition. Format: in vivo, BALB/c mice. The text has this: The following antibodies and reagents were used for flow cytometry: CD16/32 (BD Biosciences), CD3e Alexa Fluor 488 (14-C11; BD Biosciences), CD4 Brilliant Violet 421 (GK1.5, BD Biosciences), CD8a PerCP-Cy5.5 (53-6.7, BD Biosciences), CD25 PE (PC61, BD Biosciences), Foxp3 Alexa Fluor 647 (MF23, BD Biosciences), CD11b Alexa Fluor 700 (M1/70, BD Biosciences), I-A/I-E Alexa Fluor 488 (M5/114.15.2, BD Biosciences), Ly-6C PerCP-Cy5.5 (AL-21, BD Biosciences), CD11c PE (HL3, BD Biosciences), F4/80 APC (BM8, Biolegend), Ly-6G Pacific Blue (1A8, Biolegend), CD45 Pacific Orange (30-F11, Invitrogen Life Technologies), and Live/Dead Fixable Near IR Dead Cell Stain (Invitrogen Life Technologies). Flow cytometry was performed with LSR II (BD Biosciences) and the data was analyzed with FACS Diva software (BD Biosciences). To assess the level of circulating G-MDSC population, blood samples were collected from the mice 7 days after the initiation of the anti-PD-1/anti-CTLA-4 antibody treatments with or without 5-AZA/Entinostat. […] CD8^+ T cell level was assessed using previously established phenotypic criteria of CD45^+CD3^+CD8^+ and total CD45^+CD3^+ cells was used as a common denominator. Treg cell level was assessed using previously established phenotypic criteria of CD45^+CD3^+CD4^+CD25^+FoxP3^+ and total CD45^+CD3^+CD4^+ cells were used as a common denominator.
For orientation: In flow cytometry, cells or beads pass a laser one at a time.

[7] abbreviates: individual mouse, listed as ENT.

Consider `Nc1ncn([C@@H]2O[C@H](CO)[C@@H](O)[C@H]2O)c(=O)n1` [AZA, 5-azacytidine], for which the “expression of MHC-I, B2M and TAP1 genes” value in [1] is on record as “did not significantly increase the expression”. Further, the “expression of MHC-I, B2M and TAP1 genes” value in series [2] is on record as “did not significantly increase the expression”. Also, the cell viability result with 4T1 cells is “unresponsive”. Further, in the series with 4T1 tumors, the “metastases (in words)” value is reported as “unable to eradicate either primary tumor or metastasis” and the “primary tumors (in words)” value is on record as “unable to eradicate either primary tumor or metastasis”. In the series on 4T1 tumors (AVERAGE of group), the “Liver Mets” value was 12, the “Lung Mets” value was determined as 17, the “Primary Tumor Vol (mm^3)” value turned out to be 2750 mm^3 and the “Spleen Mets” value is recorded as 1. Also, in the series with 4T1 tumors (individual mouse), the “Liver Mets” value is 0 (3×) and 43 and 16; the “Lung Mets” value is 20 (2×) and 16 and 17 and 14; the “Primary Tumor Vol (mm^3)” value was 2345 mm^3 and 2454 mm^3 and 2477 mm^3 and 4358 mm^3 and 2117 mm^3; the “Spleen Mets” value is 0 (3×) and 3 and 1. Moreover, the cell viability entry in the series with G-MDSCs [3] is reported as “no effect at comparable concentrations”.

For the compound `Nc1ccccc1NC(=O)c1ccc(CNC(=O)OCc2cccnc2)cc1` [entinostat], the “IFN-γ secretion inhibited by G-MDSCs” value in series [4] is listed as “reversed the inhibition in a dose-dependent manner”. Besides, the “expression of MHC-I, B2M and TAP1 genes” value in series [1] is listed as “did not significantly increase the expression”. In series [2], the “expression of MHC-I, B2M and TAP1 genes” value was “did not significantly increase the expression”. Besides, the “toxicity as indicated by body weight changes” value in series [5] is on record as “Temporary self-limiting toxicity”. For the same compound, in the series on 4T1 cells, the cell viability result is “unresponsive”. For the same compound, the cell viability entry in the series on CD8+ T cells is on record as “only modest effects”. Moreover, in the series with 4T1 tumors, the “metastases (in words)” value is listed as “unable to eradicate either primary tumor or metastasis” and the “primary tumors (in words)” value is reported as “unable to eradicate either primary tumor or metastasis”. In addition, in the series on 4T1 tumors (AVERAGE of group), the “Liver Mets” value amounted to 4, the “Lung Mets” value turned out to be 17, the “Primary Tumor Vol (mm^3)” value is 3483 mm^3 and the “Spleen Mets” value was 1. In the series with 4T1 tumors (setting [7]), the “Liver Mets” value was 10 and 3 and 0 (2×) and 6; the “Lung Mets” value was 25 and 20 (2×) and 0 and 22; the “Primary Tumor Vol (mm^3)” value was 3005 mm^3 and 5038 mm^3 and 2275 mm^3 and 3063 mm^3 and 4032 mm^3; the “Spleen Mets” value is 1 and 0 (3×) and 3. In addition, in the series with G-MDSCs [6], the “number of circulating G-MDSCs” value was “striking reduction in the number of circulating G-MDSCs”. In addition, in the series with G-MDSCs [3], the cell viability result is “markedly reduced viability”.
